Test results as given in PubChem BioAssay (NCI).
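Values below derive from 48-hour exposures of cells grown in 96-well plates, with endpoints linearly interpolated between the two concentrations bracketing the appropriate inhibition level. At the TGI there is no net growth.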

Tests used:
Test in all cases: DTP human tumour cell line panel, 48 h
SR leukemia = tested on: SR leukemia
U251 CNS = tested on: U251 CNS
SNB-19 CNS = tested on: SNB-19 CNS
MDA-MB-231 breast = tested on: MDA-MB-231 breast
SK-MEL-5 melanoma = tested on: SK-MEL-5 melanoma
HCC-2998 colon = tested on: HCC-2998 colon
PC-3 prostate = tested on: PC-3 prostate
BT-549 breast = tested on: BT-549 breast
OVCAR-5 ovarian = tested on: OVCAR-5 ovarian
MOLT-4 leukemia = tested on: MOLT-4 leukemia
KM12 colon = tested on: KM12 colon
ACHN renal = tested on: ACHN renal
UACC-257 melanoma = tested on: UACC-257 melanoma
OVCAR-3 ovarian = tested on: OVCAR-3 ovarian
M14 melanoma = tested on: M14 melanoma
COLO 205 colon = tested on: COLO 205 colon
SF-295 CNS = tested on: SF-295 CNS
NCI-H23 lung = tested on: NCI-H23 lung
UO-31 renal = tested on: UO-31 renal
MALME-3M melanoma = tested on: MALME-3M melanoma
UACC-62 melanoma = tested on: UACC-62 melanoma
DU-145 prostate = tested on: DU-145 prostate
HL-60(TB) leukemia = tested on: HL-60(TB) leukemia
A549 NSCLC = tested on: A549 NSCLC
OVCAR-4 ovarian = tested on: OVCAR-4 ovarian
NCI-H226 lung = tested on: NCI-H226 lung
CCRF-CEM leukemia = tested on: CCRF-CEM leukemia
OVCAR-8 ovarian = tested on: OVCAR-8 ovarian
K-562 leukemia = tested on: K-562 leukemia
LOX IMVI melanoma = tested on: LOX IMVI melanoma
SK-MEL-28 melanoma = tested on: SK-MEL-28 melanoma
NCI/ADR-RES ovarian = tested on: NCI/ADR-RES ovarian
HCT-116 colon = tested on: HCT-116 colon
NCI-H460 lung = tested on: NCI-H460 lung
A498 renal = tested on: A498 renal
SW-620 colon = tested on: SW-620 colon
T-47D breast = tested on: T-47D breast
MCF7 breast = tested on: MCF7 breast
SK-OV-3 ovarian = tested on: SK-OV-3 ovarian
SNB-75 CNS = tested on: SNB-75 CNS
HOP-92 NSCLC = tested on: HOP-92 NSCLC
786-0 renal = tested on: 786-0 renal
SF-539 CNS = tested on: SF-539 CNS
MDA-MB-435 = tested on: MDA-MB-435
HCT-15 colon = tested on: HCT-15 colon
HS 578T breast = tested on: HS 578T breast
NCI-H522 lung = tested on: NCI-H522 lung
SF-268 CNS = tested on: SF-268 CNS
CAKI-1 renal = tested on: CAKI-1 renal
EKVX NSCLC = tested on: EKVX NSCLC
MDA-N = tested on: MDA-N
IGROV1 ovarian = tested on: IGROV1 ovarian
SK-MEL-2 melanoma = tested on: SK-MEL-2 melanoma
RXF 393 renal = tested on: RXF 393 renal
SN12C renal = tested on: SN12C renal
HOP-62 NSCLC = tested on: HOP-62 NSCLC
TK-10 renal = tested on: TK-10 renal
HT29 colon = tested on: HT29 colon
RPMI-8226 leukemia = tested on: RPMI-8226 leukemia

For `OC1COC(n2c3ccc(Br)cc3c3ccc4c5ccccc5[nH]c4c32)C(O)C1O` (stereo not drawn), the TGI (SR leukemia) was 13.3 µM, the TGI (U251 CNS) was 32.1 µM and the TGI (SNB-19 CNS) was 28.2 µM. The TGI (MDA-MB-231 breast) was 7.47 µM, the TGI (SK-MEL-5 melanoma) was 5.2 µM and the TGI (HCC-2998 colon) was 11.4 µM. The TGI (PC-3 prostate) was 12 µM, the TGI (BT-549 breast) was 26.3 µM and the TGI (OVCAR-5 ovarian) was 12.4 µM. For the same compound, the TGI (MOLT-4 leukemia) was 11.2 µM, the TGI (KM12 colon) was 3.53 µM and the TGI (ACHN renal) was 10.9 µM. The TGI (UACC-257 melanoma) was 19.9 µM, the TGI (OVCAR-3 ovarian) was 12.5 µM and the TGI (M14 melanoma) was 15.3 µM. For the same compound, the TGI (COLO 205 colon) was 3.65 µM, the TGI (SF-295 CNS) was 10.6 µM and the TGI (NCI-H23 lung) was 12 µM. It also gave a TGI (UO-31 renal) of 14.2 µM, a TGI (MALME-3M melanoma) of 15.3 µM and a TGI (UACC-62 melanoma) of 1.53 µM. The TGI (DU-145 prostate) was 12.6 µM, the TGI (HL-60(TB) leukemia) was 8.75 µM and the TGI (A549 NSCLC) was 23.7 µM. The TGI (OVCAR-4 ovarian) was > 46.2 µM, the TGI (NCI-H226 lung) was 30.3 µM and the TGI (CCRF-CEM leukemia) was 19.3 µM. For the same compound, the TGI (OVCAR-8 ovarian) was 15.8 µM, the TGI (K-562 leukemia) was 13.6 µM and the TGI (LOX IMVI melanoma) was 10.4 µM. It also gave a TGI (SK-MEL-28 melanoma) of 28.9 µM, a TGI (NCI/ADR-RES ovarian) of 19.1 µM and a TGI (HCT-116 colon) of 12 µM. For the same compound, the TGI (NCI-H460 lung) was 18.6 µM, the TGI (A498 renal) was 13.9 µM and the TGI (SW-620 colon) was 29.4 µM. The TGI (T-47D breast) was 20.1 µM, the TGI (MCF7 breast) was 14.2 µM and the TGI (SK-OV-3 ovarian) was 17.7 µM. For the same compound, the TGI (SNB-75 CNS) was 14.3 µM, the TGI (HOP-92 NSCLC) was 9.38 µM and the TGI (786-0 renal) was 17.8 µM. The TGI (SF-539 CNS) was 16.2 µM, the TGI (MDA-MB-435) was 16.1 µM and the TGI (HCT-15 colon) was 15.7 µM. For the same compound, the TGI (HS 578T breast) was 18.1 µM, the TGI (NCI-H522 lung) was 11.3 µM and the TGI (SF-268 CNS) was 19.9 µM. It also gave a TGI (CAKI-1 renal) of 10.6 µM, a TGI (EKVX NSCLC) of 17.3 µM and a TGI (MDA-N) of 15.2 µM. The TGI (IGROV1 ovarian) was 8.21 µM, the TGI (SK-MEL-2 melanoma) was 19.8 µM and the TGI (RXF 393 renal) was 7.37 µM. It also gave a TGI (SN12C renal) of 16 µM, a TGI (HOP-62 NSCLC) of 14.7 µM and a TGI (TK-10 renal) of 13.9 µM. It also gave a TGI (HT29 colon) of 11.4 µM and a TGI (RPMI-8226 leukemia) of 15.8 µM.
`C=CC[C@H](C)CCC(=O)N1[C@H]2CC3CC[C@@]2(CS1(=O)=O)C3(C)C` was tested, and the TGI (SR leukemia) was > 100 µM, the TGI (U251 CNS) was > 100 µM and the TGI (SNB-19 CNS) was > 100 µM. For the same compound, the TGI (MDA-MB-231 breast) was > 100 µM, the TGI (SK-MEL-5 melanoma) was 51.3 µM and the TGI (HCC-2998 colon) was > 100 µM. For the same compound, the TGI (PC-3 prostate) was > 100 µM, the TGI (BT-549 breast) was > 100 µM and the TGI (OVCAR-5 ovarian) was > 100 µM. The TGI (MOLT-4 leukemia) was 68.1 µM, the TGI (KM12 colon) was > 100 µM and the TGI (ACHN renal) was > 100 µM. For the same compound, the TGI (UACC-257 melanoma) was > 100 µM, the TGI (M14 melanoma) was > 100 µM and the TGI (COLO 205 colon) was > 100 µM. For the same compound, the TGI (SF-295 CNS) was > 100 µM, the TGI (NCI-H23 lung) was > 100 µM and the TGI (UO-31 renal) was > 100 µM. For the same compound, the TGI (MALME-3M melanoma) was > 100 µM, the TGI (UACC-62 melanoma) was > 100 µM and the TGI (DU-145 prostate) was > 100 µM. For the same compound, the TGI (HL-60(TB) leukemia) was 57.3 µM, the TGI (A549 NSCLC) was > 100 µM and the TGI (OVCAR-4 ovarian) was > 100 µM. For the same compound, the TGI (NCI-H226 lung) was > 100 µM, the TGI (CCRF-CEM leukemia) was 59.2 µM and the TGI (OVCAR-8 ovarian) was > 100 µM. The TGI (LOX IMVI melanoma) was 83 µM, the TGI (SK-MEL-28 melanoma) was > 100 µM and the TGI (NCI/ADR-RES ovarian) was > 100 µM. For the same compound, the TGI (HCT-116 colon) was > 100 µM, the TGI (NCI-H460 lung) was > 100 µM and the TGI (A498 renal) was > 100 µM. For the same compound, the TGI (SW-620 colon) was > 100 µM, the TGI (T-47D breast) was > 100 µM and the TGI (MCF7 breast) was > 100 µM. For the same compound, the TGI (SK-OV-3 ovarian) was > 100 µM, the TGI (HOP-92 NSCLC) was > 100 µM and the TGI (786-0 renal) was > 100 µM. For the same compound, the TGI (MDA-MB-435) was > 100 µM, the TGI (HCT-15 colon) was 74.9 µM and the TGI (HS 578T breast) was > 100 µM. For the same compound, the TGI (NCI-H522 lung) was 99 µM, the TGI (SF-268 CNS) was > 100 µM and the TGI (CAKI-1 renal) was > 100 µM. The TGI (EKVX NSCLC) was > 100 µM, the TGI (MDA-N) was > 100 µM and the TGI (IGROV1 ovarian) was > 100 µM. For the same compound, the TGI (SK-MEL-2 melanoma) was > 100 µM, the TGI (RXF 393 renal) was > 100 µM and the TGI (SN12C renal) was > 100 µM. The TGI (HOP-62 NSCLC) was > 100 µM, the TGI (TK-10 renal) was > 100 µM and the TGI (HT29 colon) was 49 µM. The TGI (RPMI-8226 leukemia) was > 100 µM.
With `CNC(=S)N/N=C/c1cccc(C)n1` the TGI (SR leukemia) was > 78.1 µM, the TGI (U251 CNS) was > 100 µM and the TGI (SNB-19 CNS) was > 100 µM. For the same compound, the TGI (MDA-MB-231 breast) was > 89 µM, the TGI (SK-MEL-5 melanoma) was > 74.9 µM and the TGI (HCC-2998 colon) was > 100 µM. For the same compound, the TGI (PC-3 prostate) was > 100 µM, the TGI (BT-549 breast) was 86.3 µM and the TGI (OVCAR-5 ovarian) was > 100 µM. For the same compound, the TGI (MOLT-4 leukemia) was > 87 µM, the TGI (KM12 colon) was > 100 µM and the TGI (ACHN renal) was > 96.5 µM. The TGI (UACC-257 melanoma) was > 100 µM, the TGI (OVCAR-3 ovarian) was > 100 µM and the TGI (M14 melanoma) was 47.8 µM. For the same compound, the TGI (COLO 205 colon) was > 85.2 µM, the TGI (SF-295 CNS) was > 100 µM and the TGI (NCI-H23 lung) was > 81.2 µM. The TGI (UO-31 renal) was > 100 µM, the TGI (MALME-3M melanoma) was > 100 µM and the TGI (UACC-62 melanoma) was 56.4 µM. For the same compound, the TGI (DU-145 prostate) was > 83.2 µM, the TGI (HL-60(TB) leukemia) was > 75.9 µM and the TGI (A549 NSCLC) was > 100 µM. For the same compound, the TGI (OVCAR-4 ovarian) was > 100 µM, the TGI (NCI-H226 lung) was > 83.9 µM and the TGI (CCRF-CEM leukemia) was > 73.6 µM. The TGI (OVCAR-8 ovarian) was > 75.7 µM, the TGI (K-562 leukemia) was > 100 µM and the TGI (LOX IMVI melanoma) was > 73.8 µM. The TGI (SK-MEL-28 melanoma) was > 100 µM, the TGI (NCI/ADR-RES ovarian) was 63.3 µM and the TGI (HCT-116 colon) was > 100 µM. For the same compound, the TGI (NCI-H460 lung) was 60.9 µM, the TGI (A498 renal) was > 71 µM and the TGI (SW-620 colon) was > 100 µM. For the same compound, the TGI (T-47D breast) was > 92.4 µM, the TGI (MCF7 breast) was > 100 µM and the TGI (SK-OV-3 ovarian) was > 100 µM. The TGI (SNB-75 CNS) was 90.9 µM, the TGI (HOP-92 NSCLC) was > 100 µM and the TGI (786-0 renal) was 98.5 µM. The TGI (SF-539 CNS) was 39.7 µM, the TGI (MDA-MB-435) was > 100 µM and the TGI (HCT-15 colon) was > 100 µM. The TGI (HS 578T breast) was > 100 µM, the TGI (NCI-H522 lung) was > 86.2 µM and the TGI (SF-268 CNS) was > 76 µM. For the same compound, the TGI (CAKI-1 renal) was > 100 µM, the TGI (EKVX NSCLC) was > 100 µM and the TGI (MDA-N) was > 100 µM. The TGI (IGROV1 ovarian) was > 100 µM, the TGI (SK-MEL-2 melanoma) was > 100 µM and the TGI (RXF 393 renal) was 97.4 µM. The TGI (SN12C renal) was 64.1 µM, the TGI (HOP-62 NSCLC) was 46.7 µM and the TGI (TK-10 renal) was > 100 µM. For the same compound, the TGI (HT29 colon) was > 100 µM and the TGI (RPMI-8226 leukemia) was > 100 µM.
